Legend:
Format in all cases: cell-based
human TLR7 = target: T1, human TLR7 (Homo sapiens, UniProt Q9NYK1); experiment: TLR7 inhibition reporter assay (HEK-Blue cells, SEAP reporter, gardiquimod stimulation); conditions: HEK-Blue cells overexpressing human TLR7, SEAP reporter, gardiquimod 7.5 μM
T1 construct: host or cells: HEK-Blue cells (HEK293-derived reporter line)
T1 sequence (Q9NYK1 27-1049): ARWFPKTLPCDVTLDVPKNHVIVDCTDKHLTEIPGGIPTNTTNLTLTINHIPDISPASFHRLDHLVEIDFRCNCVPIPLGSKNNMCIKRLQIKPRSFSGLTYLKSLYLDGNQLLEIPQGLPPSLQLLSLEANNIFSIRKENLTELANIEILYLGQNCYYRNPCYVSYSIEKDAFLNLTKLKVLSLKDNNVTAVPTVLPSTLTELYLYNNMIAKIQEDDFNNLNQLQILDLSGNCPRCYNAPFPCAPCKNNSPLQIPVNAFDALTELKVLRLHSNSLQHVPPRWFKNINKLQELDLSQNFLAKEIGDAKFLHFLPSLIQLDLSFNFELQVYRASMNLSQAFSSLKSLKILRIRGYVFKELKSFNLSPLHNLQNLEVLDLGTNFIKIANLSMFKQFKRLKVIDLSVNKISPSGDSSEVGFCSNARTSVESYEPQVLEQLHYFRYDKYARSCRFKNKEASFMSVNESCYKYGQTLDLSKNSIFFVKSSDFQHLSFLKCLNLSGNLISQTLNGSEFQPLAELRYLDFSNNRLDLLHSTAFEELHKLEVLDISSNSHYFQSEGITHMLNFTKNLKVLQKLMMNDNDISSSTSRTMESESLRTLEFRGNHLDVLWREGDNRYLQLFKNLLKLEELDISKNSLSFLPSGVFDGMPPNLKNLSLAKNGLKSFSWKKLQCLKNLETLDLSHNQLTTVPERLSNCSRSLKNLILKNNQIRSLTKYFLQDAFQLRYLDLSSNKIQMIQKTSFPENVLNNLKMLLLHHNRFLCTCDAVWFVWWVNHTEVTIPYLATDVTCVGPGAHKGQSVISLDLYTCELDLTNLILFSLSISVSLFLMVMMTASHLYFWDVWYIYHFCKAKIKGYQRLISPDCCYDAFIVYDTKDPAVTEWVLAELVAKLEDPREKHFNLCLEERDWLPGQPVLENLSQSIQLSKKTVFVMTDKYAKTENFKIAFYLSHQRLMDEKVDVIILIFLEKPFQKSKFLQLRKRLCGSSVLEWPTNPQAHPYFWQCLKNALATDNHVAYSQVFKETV
Outline: (§1)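 Read-out is SEAP activity in HEK-Blue detection medium after 22 h at 37 °C, converted to percent inhibition against agonist-plus-DMSO and reference-inhibitor controls. Cells saw compound (0.05 nM–50 μM, 30 min, room temperature) before gardiquimod 7.5 μM, R848 15.9 μM or ODN2006 5 nM for TLR7, TLR8 and TLR9, respectively.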

human TLR8 = target: T2, human TLR8 (Homo sapiens, UniProt Q9NR97); experiment: TLR8 inhibition reporter assay (HEK-Blue cells, SEAP reporter, R848 stimulation); conditions: HEK-Blue cells overexpressing human TLR8, SEAP reporter, R848 15.9 μM
T2 construct: host or cells: HEK-Blue cells (HEK293-derived reporter line)
T2 sequence (Q9NR97 27-1041): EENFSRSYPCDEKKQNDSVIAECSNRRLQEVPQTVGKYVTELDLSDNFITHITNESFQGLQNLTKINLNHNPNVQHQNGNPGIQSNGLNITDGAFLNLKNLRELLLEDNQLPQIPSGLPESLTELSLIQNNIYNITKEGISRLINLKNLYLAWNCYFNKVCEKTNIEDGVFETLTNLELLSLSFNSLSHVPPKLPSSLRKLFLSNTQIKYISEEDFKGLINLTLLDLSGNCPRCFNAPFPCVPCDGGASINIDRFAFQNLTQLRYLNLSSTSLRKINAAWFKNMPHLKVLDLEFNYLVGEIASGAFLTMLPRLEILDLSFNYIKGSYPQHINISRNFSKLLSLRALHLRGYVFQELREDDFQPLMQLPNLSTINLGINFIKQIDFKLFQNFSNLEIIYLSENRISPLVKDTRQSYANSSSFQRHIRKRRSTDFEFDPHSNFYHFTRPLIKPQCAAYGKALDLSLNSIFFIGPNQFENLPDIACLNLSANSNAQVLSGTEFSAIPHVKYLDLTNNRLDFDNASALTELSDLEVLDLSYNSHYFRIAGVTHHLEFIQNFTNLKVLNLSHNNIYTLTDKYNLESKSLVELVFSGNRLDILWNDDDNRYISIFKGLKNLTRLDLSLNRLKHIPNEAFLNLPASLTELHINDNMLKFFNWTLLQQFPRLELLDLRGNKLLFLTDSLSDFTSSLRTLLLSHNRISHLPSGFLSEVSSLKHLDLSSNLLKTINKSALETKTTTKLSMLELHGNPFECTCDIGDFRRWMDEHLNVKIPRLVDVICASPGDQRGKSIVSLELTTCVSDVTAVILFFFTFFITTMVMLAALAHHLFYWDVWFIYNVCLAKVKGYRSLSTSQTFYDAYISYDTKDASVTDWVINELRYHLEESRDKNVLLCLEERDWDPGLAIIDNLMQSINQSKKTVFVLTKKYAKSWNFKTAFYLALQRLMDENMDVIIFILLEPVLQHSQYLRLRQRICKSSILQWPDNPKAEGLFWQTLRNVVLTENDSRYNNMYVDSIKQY
Outline: as §1

human TLR9 = target: T3, human TLR9 (Homo sapiens, UniProt Q9NR96); experiment: TLR9 inhibition reporter assay (HEK-Blue cells, SEAP reporter, ODN2006 stimulation); conditions: HEK-Blue cells overexpressing human TLR9, SEAP reporter, ODN2006 5 nM
T3 construct: host or cells: HEK-Blue cells (HEK293-derived reporter line)
T3 sequence (Q9NR96 26-1032): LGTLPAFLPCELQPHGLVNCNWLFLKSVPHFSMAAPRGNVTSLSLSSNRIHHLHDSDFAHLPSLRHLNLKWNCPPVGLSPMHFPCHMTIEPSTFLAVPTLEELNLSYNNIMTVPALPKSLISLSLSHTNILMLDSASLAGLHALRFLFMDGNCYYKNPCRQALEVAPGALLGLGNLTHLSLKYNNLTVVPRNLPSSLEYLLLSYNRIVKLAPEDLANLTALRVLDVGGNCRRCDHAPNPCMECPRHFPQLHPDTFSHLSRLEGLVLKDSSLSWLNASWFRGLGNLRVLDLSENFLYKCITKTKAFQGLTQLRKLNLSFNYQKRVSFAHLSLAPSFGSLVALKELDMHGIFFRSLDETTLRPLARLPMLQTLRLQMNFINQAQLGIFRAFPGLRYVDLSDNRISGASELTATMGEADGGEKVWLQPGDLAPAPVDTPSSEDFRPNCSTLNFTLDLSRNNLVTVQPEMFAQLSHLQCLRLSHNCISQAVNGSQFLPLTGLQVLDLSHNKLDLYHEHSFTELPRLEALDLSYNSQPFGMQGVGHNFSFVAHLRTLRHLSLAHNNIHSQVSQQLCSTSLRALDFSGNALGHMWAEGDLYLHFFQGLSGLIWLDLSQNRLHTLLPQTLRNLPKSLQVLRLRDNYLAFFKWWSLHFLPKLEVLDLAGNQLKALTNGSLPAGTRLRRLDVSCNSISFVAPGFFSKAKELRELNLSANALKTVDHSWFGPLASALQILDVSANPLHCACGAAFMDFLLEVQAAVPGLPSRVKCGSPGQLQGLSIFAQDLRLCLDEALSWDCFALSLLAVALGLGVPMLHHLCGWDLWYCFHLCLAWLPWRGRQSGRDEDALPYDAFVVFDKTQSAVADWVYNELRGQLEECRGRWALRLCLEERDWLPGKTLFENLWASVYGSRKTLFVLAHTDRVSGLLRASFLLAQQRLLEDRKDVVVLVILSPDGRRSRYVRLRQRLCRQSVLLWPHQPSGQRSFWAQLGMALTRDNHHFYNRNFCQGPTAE
Outline: as §1

Row | SMILES | IC50 (human TLR7) [nM] | IC50 (human TLR8) [nM] | IC50 (human TLR9) [nM]
1 | CNC(=O)CN1CCC(c2ccc3[nH]c(-c4cc(OC)n5ccnc5c4)c(C(C)C)c3c2)CC1 [Example 356, 2-(4-(3-isopropyl-2-(5-methoxyimidazo[1,2-a]pyridin-7-yl)-1H-indol-5-yl)piperidin-1-yl)-N-methylacetamide] | 100 to 1000 | 100 to 1000 | 100 to 1000
2 | CC(C)c1c(-c2cn(C)c3c(=O)n(C)ccc23)[nH]c2ccc(C3CCN(CC(=O)N(C)C)CC3)cc12 [Example 297, 2-(4-(2-(1,6-dimethyl-7-oxo-6,7-dihydro-1H-pyrrolo[2,3-c]pyridin-3-yl)-3-isopropyl-1H-indol-5-yl)piperidin-1-yl)-N,N-dimethylacetamide] | < 100 | < 100 | 1000 to 50000
3 | COc1cc(-c2[nH]c3ccc(C4CCN(CC(C)(C)O)CC4)cc3c2C(C)C)nn2ncnc12 [Example 749, 1-(4-(3-isopropyl-2-(8-methoxy-[1,2,4]triazolo[1,5-b]pyridazin-6-yl)-1H-indol-5-yl)piperidin-1-yl)-2-methylpropan-2-ol] | < 100 | < 100 | 1000 to 50000
4 | CNC(=O)CN1CCC(c2ccc3[nH]c(-c4cc(C)c5nc(C(=O)N(C)CCO)cn5c4)c(C(C)C)c3c2)CC1 [Example 345, N-(2-hydroxyethyl)-6-(3-isopropyl-5-(1-(2-(methylamino)-2-oxoethyl)piperidin-4-yl)-1H-indol-2-yl)-N,8-dimethylimidazo[1,2-a]pyridine-2-carboxamide] | < 100 | 100 to 1000 | 1000 to 50000
5 | CC(C)c1c(-c2n[nH]c3ncccc23)[nH]c2ccc(C3CCNCC3)cc12 [Example 18, 3-(3-isopropyl-5-(piperidin-4-yl)-1H-indol-2-yl)-1H-pyrazolo[3,4-b]pyridine] | < 100 | < 100 | 1000 to 50000
6 | Cc1cc2nnnn2cc1-c1[nH]c2ccc(C3CCN(C4CCOCC4)CC3)cc2c1C(C)C [Example 699, 6-(3-isopropyl-5-(1-(tetrahydro-2H-pyran-4-yl)piperidin-4-yl)-1H-indol-2-yl)-7-methyltetrazolo[1,5-a]pyridine] | < 100 | < 100 | 1000 to 50000
7 | CC(C)c1c(-c2cc(C(C)(C)O)c3nccn3c2)[nH]c2ccc(C3CCN(C(=O)CN(C)C)CC3)cc12 [Example 493, 2-(dimethylamino)-1-(4-(2-(8-(2-hydroxypropan-2-yl)imidazo[1,2-a]pyridin-6-yl)-3-isopropyl-1H-indol-5-yl)piperidin-1-yl) ethan-1-one] | < 100 | 1000 to 50000 | 100 to 1000
8 | CC(C)c1c(-c2ccnc3[nH]ncc23)[nH]c2ccc(C3CCN(CCN)CC3)cc12 [Example 655, 2-(4-(3-isopropyl-2-(1H-pyrazolo[3,4-b]pyridin-4-yl)-1H-indol-5-yl)piperidin-1-yl)ethan-1-amine] | < 100 | < 100 | 100 to 1000
9 | COc1nc(-c2[nH]c3ccc(C4CCN(CC(=O)N(C)C)CC4)cc3c2C(C)C)cn2ncnc12 [Example 292, 2-(4-(3-isopropyl-2-(8-methoxy-[1,2,4]triazolo[1,5-a]pyrazin-6-yl)-1H-indol-5-yl)piperidin-1-yl)-N,N-dimethylacetamide] | < 100 | < 100 | 1000 to 50000
10 | CCc1c(-c2ccc3[nH]c(=O)oc3c2)[nH]c2ccc(C3CCNCC3)cc12 [Example 167, 6-(3-ethyl-5-(piperidin-4-yl)-1H-indol-2-yl)benzo[d]oxazol-2(3H)-one] | 100 to 1000 | 100 to 1000 | 100 to 1000

Further lines, results first:

Row | IC50 (human TLR7) [nM] | IC50 (human TLR8) [nM] | IC50 (human TLR9) [nM] | SMILES
11 | < 100 | 100 to 1000 | 1000 to 50000 | Cc1cc2nnnn2cc1-c1[nH]c2ccc(C3CCN(C(=O)CN(C)C)CC3)cc2c1C(C)C [Example 486, 2-(dimethylamino)-1-(4-(3-isopropyl-2-(7-methyltetrazolo[1,5-a]pyridin-6-yl)-1H-indol-5-yl)piperidin-1-yl)ethan-1-one]
12 | < 100 | < 100 | 1000 to 50000 | CC(C)c1c(-c2cnc3ncnn3c2)[nH]c2ccc(C3CCN(C4CCS(=O)(=O)CC4)CC3)cc12 [Example 798, 4-(4-(2-([1,2,4]triazolo[1,5-a]pyrimidin-6-yl)-3-isopropyl-1H-indol-5-yl)piperidin-1-yl)tetrahydro-2H-thiopyran 1,1-dioxide]
13 | < 100 | < 100 | < 100 | CCc1c(-c2cnc3cn[nH]c3c2)[nH]c2ccc(C3CCN(C4CCN(C(C)C)CC4)CC3)cc12 [Example 836, 6-(3-ethyl-5-(1′-isopropyl-[1,4′-bipiperidin]-4-yl)-1H-indol-2-yl)-1H-pyrazolo[4,3-b]pyridine]
14 | < 100 | 1000 to 50000 | > 50000 | CC(C)c1c(-c2cc(F)c3nccn3c2)[nH]c2ccc(C3CCN(C(=O)C[C@@H](C)O)CC3)cc12 [Example 605, (R)-1-(4-(2-(8-fluoroimidazo[1,2-a]pyridin-6-yl)-3-isopropyl-1H-indol-5-yl)piperidin-1-yl)-3-hydroxybutan-1-one]

Reference: patent US11739098B2 (BRISTOL-MYERS SQUIBB COMPANY, priority 2017, dated 2023)
